# *1 amine or outer side, *2 acyl side, *3 side chain or, on linkers, in order; H or OH if unused. Where a SMILES comes first, the peptide text is derived from it. [ ]: non-standard residue; d: D form. The star is where a group is joined. ξ: configuration not given here. ξLys(Nα-CO-ξAad) = O=C(O)CCCC(NC(=O)NC(CCCCN*)C(=O)O)C(=O)O; Butanoyl(4-(4-NO2Ph)) = O=C(CCCc1ccc([N+](=O)[O-])cc1)*; DOTA = O=C(O)CN1CCN(CC(=O)O)CCN(CC(=O)*)CCN(CC(=O)O)CC1; Butanoyl(4-(4-MeO-phenyl)) = COc1ccc(CCCC(=O)*)cc1; ξAla(9-anthryl) = NC(Cc1c2ccccc2cc2ccccc12)C(=O)O; X2 = O=C(NC(CCCCN*)C(=O)O)NC(CC(F)C(=O)O)C(=O)O; X1 = O=C(C1CCC(CN[*:1])CC1)[*:2]; ξK = NCCCCC(N)C(=O)O
# Tested on: NRG-mice bearing LNCaP tumors
# Test: Biodistribution (and PET/SPECT imaging) in NRG-mice bearing LNCaP tumors
# Type: in vivo
# Conditions: for Biodistribution: Adrenal gland / Biodistribution: Blood / Biodistribution: Bone / Biodistribution: Brain / Biodistribution: Fat / Biodistribution: Heart / Biodistribution: Intestine / Biodistribution: LNCaP tumor / Biodistribution: Liver / Biodistribution: Lungs / Biodistribution: Muscle / Biodistribution: Pancreas / Biodistribution: Salivary gland / Biodistribution: Seminal gland / Biodistribution: Spleen / Biodistribution: Stomach / Biodistribution: Testes / Biodistribution: Thyroid / Biodistribution: Urine / Biodistribution: kidney: Avg
# Protocol: LNCaP cell line was obtained from ATCC (LNCaP clone FGC, CRL-1740). It was established from a metastatic site of left supraclavicular lymph node of human prostatic adenocarcinoma. Cells were cultured in PRMI 1640 medium supplemented with 10% FBS, penicillin (100 U/mL) and streptomycin (100 μg/mL) at 37° C. in a humidified incubator containing 5% CO2. Cells grown to 80-90% confluence were then washed with sterile phosphate-buffered saline (1×PBS pH 7.4) and trypsinization. The collected cells number was counted with a Hausser Scientific (Horsham, PA) Hemacytometer. Approximately 10 million LNCaP cells were inoculated into the left dorsal flank of immunocomprised NRG mice. The tumours were allowed to grow for 4-6 weeks and used for imaging and biodistribution studies when a volume of 200-600 mm^3 was reached.
# PET imaging experiments were conducted using Siemens Inveon micro PET/CT scanner. SPECT imaging experiments were conducted using an MILabs micro SPECT/CT scanner. Each tumor bearing mouse was injected 4-6 MBq of ^68Ga or 18.5 MBq of ^177Lu labeled tracer through the tail vein under anesthesia (2% isoflurane in oxygen). The mice were allowed to recover and roam freely in their cage. At pre-defined time point, the mice were sedated again with 2% isoflurane in oxygen inhalation and positioned in the scanner. A 10-min CT scan was conducted first for localization and attenuation correction after segmentation for reconstructing the PET or SPECT images. Then, a 10-min static PET imaging or a one hour (30 min×2 frames) of static SPECT scan was performed to determined uptake in tumor and other organs. The mice were kept warm by a heating pad during acquisition.
# For biodistribution studies, the mice were injected with the radiotracer as described above. The mice were anesthetized with 2% isoflurane inhalation, and euthanized by CO2 inhalation. Blood was withdrawn immediately from the heart, and the organs/tissues of interest were collected. The collected organs/tissues were weighed and counted using a Perkin Elmer (Waltham, MA) Wizard2 2480 gamma counter. The uptake in each organ/tissue was normalized to the injected dose (radioactivity) using a standard curve, and expressed as the percentage of the injected dose per gram of tissue (% ID/g).
structure (smiles),measurement,setting,value
COc1ccc(CCCC(=O)NCC(=O)NC(CCCCNC(=O)CN2CCN(CC(=O)[O-])CCN(CC(=O)[O-])CCN(CC(=O)[O-])CC2)C(=O)NCC(=O)NCC2CCC(C(=O)NC(Cc3c4ccccc4cc4ccccc34)C(=O)NCCCCC(NC(=O)NC(CCCC(=O)O)C(=O)O)C(=O)O)CC2)cc1.[68Ga+3] (stereo not shown) [^68Ga-CCZ02009] ({Butanoyl(4-(4-MeO-phenyl))}-G[ξK](DOTA)G[X1][ξAla(9-anthryl)]-{ξLys(Nα-CO-ξAad)}),Blood radioactivity,1 and 3 h p.i.,high and sustained blood radioactivity
same,Biodistribution: Adrenal gland,1 h p.i.,3.82 % ID/g
same,Biodistribution: Blood,1 h p.i.,19.52 % ID/g
same,Biodistribution: Bone,1 h p.i.,0.77 % ID/g
same,Biodistribution: Brain,1 h p.i.,0.30 % ID/g
same,Biodistribution: Fat,1 h p.i.,1.35 % ID/g
same,Biodistribution: Heart,1 h p.i.,4.02 % ID/g
same,Biodistribution: Intestine,1 h p.i.,1.72 % ID/g
same,Biodistribution: LNCaP tumor,1 h p.i.,7.11 % ID/g
same,Biodistribution: Liver,1 h p.i.,3.04 % ID/g
same,Biodistribution: Lungs,1 h p.i.,6.51 % ID/g
same,Biodistribution: Muscle,1 h p.i.,1.15 % ID/g
same,Biodistribution: Pancreas,1 h p.i.,1.56 % ID/g
same,Biodistribution: Salivary gland,1 h p.i.,2.74 % ID/g
same,Biodistribution: Seminal gland,1 h p.i.,0.88 % ID/g
same,Biodistribution: Spleen,1 h p.i.,1.56 % ID/g
same,Biodistribution: Stomach,1 h p.i.,0.71 % ID/g
same,Biodistribution: Testes,1 h p.i.,2.33 % ID/g
same,Biodistribution: Thyroid,1 h p.i.,2.92 % ID/g
same,Biodistribution: Urine,1 h p.i.,63.67 % ID/g
same,Biodistribution: kidney,1 h p.i.,7.57 % ID/g
same,Biodistribution: Adrenal gland,3 h p.i.,4.34 % ID/g
same,Biodistribution: Blood,3 h p.i.,19.18 % ID/g
same,Biodistribution: Bone,3 h p.i.,1.62 % ID/g
same,Biodistribution: Brain,3 h p.i.,0.32 % ID/g
same,Biodistribution: Fat,3 h p.i.,1.52 % ID/g
same,Biodistribution: Heart,3 h p.i.,3.76 % ID/g
same,Biodistribution: Intestine,3 h p.i.,1.53 % ID/g
same,Biodistribution: LNCaP tumor,3 h p.i.,17.69 % ID/g
same,Biodistribution: Liver,3 h p.i.,3.35 % ID/g
same,Biodistribution: Lungs,3 h p.i.,7.15 % ID/g
same,Biodistribution: Muscle,3 h p.i.,1.34 % ID/g
same,Biodistribution: Pancreas,3 h p.i.,1.41 % ID/g
same,Biodistribution: Salivary gland,3 h p.i.,3.82 % ID/g
same,Biodistribution: Seminal gland,3 h p.i.,1.73 % ID/g
same,Biodistribution: Spleen,3 h p.i.,2.17 % ID/g
same,Biodistribution: Stomach,3 h p.i.,0.73 % ID/g
same,Biodistribution: Testes,3 h p.i.,2.28 % ID/g
same,Biodistribution: Thyroid,3 h p.i.,3.59 % ID/g
same,Biodistribution: Urine,3 h p.i.,56.09 % ID/g
same,Biodistribution: kidney,3 h p.i.,9.28 % ID/g
COc1ccc(CCCC(=O)NCC(=O)NC(CCCCNC(=O)CN2CCN(CC(=O)[O-])CCN(CC(=O)[O-])CCN(CC(=O)[O-])CC2)CC(=O)NCC2CCC(C(=O)NC(Cc3c4ccccc4cc4ccccc34)C(=O)NCCCCC(NC(=O)NC(CCCC(=O)O)C(=O)O)C(=O)O)CC2)cc1.[68Ga+3] (stereo not shown) [^68Ga-CCZ02015],Biodistribution: Adrenal gland,1 h p.i.,3.28 % ID/g
same,Biodistribution: Blood,1 h p.i.,15.78 % ID/g
same,Biodistribution: Bone,1 h p.i.,0.92 % ID/g
same,Biodistribution: Brain,1 h p.i.,0.25 % ID/g
same,Biodistribution: Fat,1 h p.i.,1.52 % ID/g
same,Biodistribution: Heart,1 h p.i.,3.19 % ID/g
same,Biodistribution: Intestine,1 h p.i.,1.46 % ID/g
same,Biodistribution: LNCaP tumor,1 h p.i.,11.16 % ID/g
same,Biodistribution: Liver,1 h p.i.,2.98 % ID/g
same,Biodistribution: Lungs,1 h p.i.,5.90 % ID/g
same,Biodistribution: Muscle,1 h p.i.,1.07 % ID/g
same,Biodistribution: Pancreas,1 h p.i.,1.34 % ID/g
same,Biodistribution: Salivary gland,1 h p.i.,2.19 % ID/g
same,Biodistribution: Seminal gland,1 h p.i.,0.72 % ID/g
same,Biodistribution: Spleen,1 h p.i.,1.28 % ID/g
same,Biodistribution: Stomach,1 h p.i.,0.46 % ID/g
same,Biodistribution: Testes,1 h p.i.,1.77 % ID/g
same,Biodistribution: Thyroid,1 h p.i.,2.54 % ID/g
same,Biodistribution: Urine,1 h p.i.,177.03 % ID/g
same,Biodistribution: kidney,1 h p.i.,11.93 % ID/g
same,Biodistribution: Adrenal gland,3 h p.i.,3.36 % ID/g
same,Biodistribution: Blood,3 h p.i.,10.81 % ID/g
same,Biodistribution: Bone,3 h p.i.,1.20 % ID/g
same,Biodistribution: Brain,3 h p.i.,0.19 % ID/g
same,Biodistribution: Fat,3 h p.i.,1.04 % ID/g
same,Biodistribution: Heart,3 h p.i.,2.55 % ID/g
same,Biodistribution: Intestine,3 h p.i.,1.17 % ID/g
same,Biodistribution: LNCaP tumor,3 h p.i.,22.60 % ID/g
same,Biodistribution: Liver,3 h p.i.,2.13 % ID/g
same,Biodistribution: Lungs,3 h p.i.,4.65 % ID/g
same,Biodistribution: Muscle,3 h p.i.,1.13 % ID/g
same,Biodistribution: Pancreas,3 h p.i.,1.10 % ID/g
same,Biodistribution: Salivary gland,3 h p.i.,2.18 % ID/g
same,Biodistribution: Seminal gland,3 h p.i.,1.63 % ID/g
same,Biodistribution: Spleen,3 h p.i.,1.01 % ID/g
same,Biodistribution: Stomach,3 h p.i.,0.84 % ID/g
same,Biodistribution: Testes,3 h p.i.,2.07 % ID/g
same,Biodistribution: Thyroid,3 h p.i.,2.09 % ID/g
same,Biodistribution: Urine,3 h p.i.,84.38 % ID/g
same,Biodistribution: kidney,3 h p.i.,10.94 % ID/g
O=C([O-])CN1CCN(CC(=O)[O-])CCN(CC(=O)NCCCCC(NC(=O)CNC(=O)CCCc2ccc([N+](=O)[O-])cc2)C(=O)NCC(=O)NCC2CCC(C(=O)NC(Cc3c4ccccc4cc4ccccc34)C(=O)NCCCCC(NC(=O)NC(CC(F)C(=O)O)C(=O)O)C(=O)O)CC2)CCN(CC(=O)[O-])CC1.[68Ga+3] (stereo not shown) [^68Ga-CCZ02025] ({Butanoyl(4-(4-NO2Ph))}-G[ξK](DOTA)G[X1][ξAla(9-anthryl)]-X2),Biodistribution: Adrenal gland,1 h p.i.,5.96 % ID/g
same,Biodistribution: Blood,1 h p.i.,19.40 % ID/g
same,Biodistribution: Bone,1 h p.i.,1.01 % ID/g
same,Biodistribution: Brain,1 h p.i.,0.30 % ID/g
same,Biodistribution: Fat,1 h p.i.,2.74 % ID/g
same,Biodistribution: Heart,1 h p.i.,4.13 % ID/g
same,Biodistribution: Intestine,1 h p.i.,1.93 % ID/g
same,Biodistribution: LNCaP tumor,1 h p.i.,9.19 % ID/g
same,Biodistribution: Liver,1 h p.i.,4.07 % ID/g
same,Biodistribution: Lungs,1 h p.i.,8.79 % ID/g
same,Biodistribution: Muscle,1 h p.i.,1.48 % ID/g
same,Biodistribution: Pancreas,1 h p.i.,1.89 % ID/g
same,Biodistribution: Salivary gland,1 h p.i.,3.24 % ID/g
same,Biodistribution: Seminal gland,1 h p.i.,2.55 % ID/g
same,Biodistribution: Spleen,1 h p.i.,1.90 % ID/g
same,Biodistribution: Stomach,1 h p.i.,0.59 % ID/g
same,Biodistribution: Testes,1 h p.i.,2.65 % ID/g
same,Biodistribution: Thyroid,1 h p.i.,4.11 % ID/g
same,Biodistribution: Urine,1 h p.i.,104.40 % ID/g
same,Biodistribution: kidney,1 h p.i.,14.01 % ID/g
same,Biodistribution: Adrenal gland,3 h p.i.,4.26 % ID/g
same,Biodistribution: Blood,3 h p.i.,13.83 % ID/g
same,Biodistribution: Bone,3 h p.i.,1.27 % ID/g
same,Biodistribution: Brain,3 h p.i.,0.22 % ID/g
same,Biodistribution: Fat,3 h p.i.,1.79 % ID/g
same,Biodistribution: Heart,3 h p.i.,2.86 % ID/g
same,Biodistribution: Intestine,3 h p.i.,1.12 % ID/g
same,Biodistribution: LNCaP tumor,3 h p.i.,18.79 % ID/g
same,Biodistribution: Liver,3 h p.i.,3.21 % ID/g
same,Biodistribution: Lungs,3 h p.i.,5.21 % ID/g
same,Biodistribution: Muscle,3 h p.i.,0.95 % ID/g
same,Biodistribution: Pancreas,3 h p.i.,1.13 % ID/g
same,Biodistribution: Salivary gland,3 h p.i.,2.47 % ID/g
same,Biodistribution: Seminal gland,3 h p.i.,1.83 % ID/g
same,Biodistribution: Spleen,3 h p.i.,1.17 % ID/g
same,Biodistribution: Stomach,3 h p.i.,0.57 % ID/g
same,Biodistribution: Testes,3 h p.i.,2.80 % ID/g
same,Biodistribution: Thyroid,3 h p.i.,2.41 % ID/g
same,Biodistribution: Urine,3 h p.i.,101.55 % ID/g
same,Biodistribution: kidney,3 h p.i.,9.90 % ID/g
